Laboratory results from patent US20030044800A1, “Drug discovery employing calorimetric target triage” (priority 2000, published 2003).

What was measured:
hexokinase = test: Calorimetric deconvolution of a cofactor mixture with hexokinase and glucose; assay type: biochemical; details: 5 μL of 20 μM hexokinase into 100 μM glucose and cofactors at 1 mM
Protocol: Hexokinase and glucose were present in each test. Various mixtures of cofactors were added to each test. Only when ATP was present in the mixture was a significant amount of heat generated. 5 μL injections of a 20 μM solution of hexokinase were titrated into a solution of 100 μM glucose and one or more “cofactors”, all at 1 mM concentration. In the initial experiment with the entire library of 15 cofactors present, enzymatic turnover was observed (as in FIG. 12a(ii)). We were then able to successfully separate out the cofactors in subsequent experiments to determine which one was actually necessary to allow the hexokinase to turn over the glucose. […] Only tiny heats of dilution are observed when ATP is absent;

E. coli protein YJEQ = E. coli protein YJEQ (Escherichia coli, UniProt P39286); test: Calorimetric titration of GTP-gamma-S into E. coli protein YJEQ; assay type: binding; details: 5 μL injections of 11 mM GTP-gamma-S into 2 mL of 385 μM protein
Protocol: 5 μL injections of an 11 mM GTP-gamma-S solution were titrated into 2 mL of a solution containing 385 μM of an E. coli protein for which no function was previously known.

| Structure (SMILES) | heat on injection of hexokinase (cofactor needed for turnover of glucose) (hexokinase) | Kd (E. coli protein YJEQ) |
| --- | --- | --- |
| Nc1ncnc2c1ncn2[C@@H]1O[C@H](COP(=O)(O)OP(=O)(O)OP(=O)(O)O)[C@@H](O)[C@H]1O [ATP] | large negative heat |  |
| Nc1nc2c(ncn2[C@@H]2O[C@H](COP(=O)(O)OP(=O)(O)OP(O)(O)=S)[C@@H](O)[C@H]2O)c(=O)[nH]1 [GTP-gamma-S] |  | 115 µM |
